Experiments:
[1] = Storage stability of [125I]-labeled derivative, checked by CPBA standard curve using DBP; format: physicochemical; conditions: 50% H2O-ethanol solution, -20° C., argon atmosphere, day 0, 21 and 49; FIG. 6
Description: A standard ethanol solution of 25-hydroxy vitamin D3 (1,024 pg/20 μl) was diluted stepwise by two-fold dilutions to prepare 32 pg/20 μl, 16 pg/20 μl, 8 pg/20 μl, 4 pg/20 μl, 2 pg/20 μl and 1 pg/20 μl.
Samples (20 μl) of each concentration hereinabove were pipetted into two tubes. Aliquots of an ethanol solution, each 20 μl, of radioisotope iodine [125I]-labeled 25-hydroxy vitamin D3 derivative, containing as an antioxidant tocopherol, were pipetted into each tube (20 μl, ca. 30,000 cpm) DBP diluted with tris buffer, pH 8.6 (approx. 500-1,000 dilution of DBP fraction in (1) hereinabove) each 500 μl, was stirred and allowed to stand at 4° C. for 16 hours.
Glycine buffer, pH 8.6, suspending a mixture of dextran (T70) and active charcoal (1:10) (each 30 μl), was added into the reaction tubes, stirred and incubated at 4° C. for 30 mins. B-F separation was made by centrifugation at 3,000 r.p.m. for 10 mins. at 4° C., and each supernatant solution 500 μl was measured by an Autowell γ-counterfor 1 min. The ratio of binding is calculated by the following equation: [formula] wherein (B) is the count number in each tube, (NSB)-- is the count number measured by using 25-hydroxy vitamin D3 (1,024 pg/20 μl) instead of ^12 5I-labeled 25-hydroxy vitamin D3 derivative and (Bo) is the count number measured by using 25-hydroxy vitamin D3 at zero concentration.
A 50% H2 O-ethanol solution of [^125 I] […]

[2] = system: Anti-25-hydroxy vitamin D3 rabbit serum; experiment: Radio immunoassay standard curve of 25-hydroxy vitamin D3 using the labeled derivative as tracer; format: binding; conditions: RIA; for sensitivity of assay, monoiodine vs diiodine [125I] labeling: FIG. 3; for standard curve result by methylene chain length n in R1: FIG. 4, n=1, n=2, n=3 compared
Description: A standard ethanol solution of 25-hydroxy vitamin D3 (256 pg/20 μl) was diluted stepwise by two-fold dilution to prepare 128 pg/20 μl, 64 pg/μl, 32 pg/20 μl, 16 pg/20 μl, 8 pg/20 μl, 4 pg/20 μl and 2 pg/20 μl samples.
Samples (20 μl) of each concentration hereinabove were pipetted into three tubes. Ethanol solutions, each 20 μl, of radioisotope iodine [^125 I]-labeled 25-hydroxy vitamin D3 derivative which contains as an antioxidant tocopherol was pipetted into each tube (20 μl, ca. 13,000 cpm).
Anti-25-hydroxy vitamin D3 rabbit serum diluted with tris buffer (approx. 15,000 dilution) pH 8.6, each 1 ml, was added to each tube. Each mixture in the tubes was stirred in a BORTEX mixer and allowed to stand at 5° C. overnight (20-24 hours). Glycine buffer (pH 8.6) suspending a mixture of dextran (T70) and active charcoal (1:10), each 300 μl) was added into the reaction tubes, and each was stirred by a BORTEX mixer and incubated at 5° C. for 1 hour. B-F separation was performed by centrifugation at 3,000 r.p.m. for 10 mins., and each supernatant solution (1 ml) was measured by an Autowell γ-counter for 1 min. The ratio of binding is calculated by the following equation: [formula] wherein (B) is the count number in each tube, (BL) is the count number measured by using 25-hydroxy vitamin D3 (1,000 pg/20 μl) in place of isotope ^125 I-labeled 25-hydroxy vitamin D3 derivative, and (Bo) is the count number measured by using 25-hydroxy vitamin D3 at zero concentration.
A standard curve was prepared by using tritium [^3 H]-labeled 25-hydroxy vitamin D3 derivative (26, 27-methyl-^3 H) as in the case of the [^125 I]-labeled derivative in (1) hereinabove.
Monoiodine [^125 I] labeling and diiodine [^125 I] labeling were compared according to the same method as hereinabove. In FIG. 3, -- -- -- indicates monoiodine [^125 I] labeling, and -- -- -- indicates diiodine [^125 I] labeling.
In formula [IV], assays using compounds having methylene R1 [--CH2)n--] wherein n=1, n=2 and n=3, are compared with each other.

Compound	stability: change of standard curve after storage [1]	sensitivity of assay, monoiodine vs diiodine [125I] labeling [2]	standard curve result by methylene chain length n in R1 [2]
C=C1CC[C@H](OC(=O)CCNC(=O)CCc2ccc(O)c([125I])c2)C/C1=C/C=C1\CCC[C@]2(C)[C@@H]([C@H](C)CCCC(C)(C)O)CC[C@@H]12 [Example 4, 25-hydroxy vitamin D3 --3β--O--{3-[N-3-(4-hydroxy-3-iodo [^125 I]phenyl)propionyl]amino propionate}]	no changes of the standard curve within a range of 2-32 pg/Test were observed	almost the same sensitivity	
C=C1CC[C@H](OC(=O)CCNC(=O)CCc2cc([125I])c(O)c([125I])c2)C/C1=C/C=C1\CCC[C@]2(C)[C@@H]([C@H](C)CCCC(C)(C)O)CC[C@@H]12 [Example 5]	no changes of the standard curve within a range of 2-32 pg/Test were observed	almost the same sensitivity	
C=C1CC[C@H](OC(=O)CCNC(=O)CCc2ccc(O)c([125I])c2)C/C1=C/C=C1\CCC[C@]2(C)[C@@H]([C@H](C)CCCC(C)(C)O)CC[C@@H]12 [n=2]			good results as compared with n=1
C=C1CC[C@H](OC(=O)CCCNC(=O)CCc2ccc(O)c([125I])c2)C/C1=C/C=C1\CCC[C@]2(C)[C@@H]([C@H](C)CCCC(C)(C)O)CC[C@@H]12 [n=3]			good results as compared with n=1

Source: US5202266A, “25-hydroxy vitamin D3 derivatives, process for their production, and assay method using the same” (Asahi Kasei Kogyo Kabushiki Kaisha, priority 1987, dated 1993)
